Measured values published in US7842316B2, “Cosmetic compositions having extracts of Amomum melegueta and methods of treating skin” (Avon Products, Inc., priority 2007, dated 2010).

Biological target: T1, COX-2 (Ovis aries, UniProt P79208)
T1 sequence (P79208 17-603): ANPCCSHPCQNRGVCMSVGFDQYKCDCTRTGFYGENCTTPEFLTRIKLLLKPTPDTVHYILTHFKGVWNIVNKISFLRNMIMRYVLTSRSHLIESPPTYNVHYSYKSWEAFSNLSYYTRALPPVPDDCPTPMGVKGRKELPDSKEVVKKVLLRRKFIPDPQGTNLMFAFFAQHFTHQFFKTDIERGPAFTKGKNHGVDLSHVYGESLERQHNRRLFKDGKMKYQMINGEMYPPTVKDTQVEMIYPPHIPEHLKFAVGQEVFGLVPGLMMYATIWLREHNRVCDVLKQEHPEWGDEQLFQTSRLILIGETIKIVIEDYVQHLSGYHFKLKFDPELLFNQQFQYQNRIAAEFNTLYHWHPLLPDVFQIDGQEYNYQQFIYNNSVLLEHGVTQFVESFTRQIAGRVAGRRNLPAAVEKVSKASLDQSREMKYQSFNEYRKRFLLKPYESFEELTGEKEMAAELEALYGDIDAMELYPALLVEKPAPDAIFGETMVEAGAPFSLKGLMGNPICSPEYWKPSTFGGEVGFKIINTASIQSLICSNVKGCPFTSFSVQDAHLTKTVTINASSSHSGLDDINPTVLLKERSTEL
Test: colorimetric COX (ovine) inhibitor screening assay
Assay type: biochemical
Settings: Vioxx used as positive control; concentration not given

Structure (SMILES): CS(=O)(=O)c1ccc(C2=C(c3ccccc3)C(=O)OC2)cc1 [Vioxx]
- level of inhibition (COX-2 inhibitory activity), positive control: 90%
